Columns and labels:
clinical = conditions: human, in vivo; for AUC(0-t): AUC12h
Protocol: This trial was a multiple-ascending dose trial in 28-day cycles. The doses used were 100, 200, 400, 600, 800, and 1000 mg. The initial dose (100 mg) was determined in accordance with the International Conference on Harmonisation of Technical Requirements for Registration of Pharmaceuticals for Human Use-S9 guideline. […] Patients received only the morning dose on day 1 for pharmacokinetics evaluation. […] Grades were determined according to the National Cancer Institute Common Terminology Criteria for Adverse Events (NCI-CTCAE v.4.0).
Blood samples were collected 10 times on day 1 (before drug administration, and 0.5-, 1-, 1.5-, 2-, 4-, 6-, 8-, 12-, and 24-h post-administration), once on days 4, 7, and 14, and 9 times on day 21 (before morning dose, and 0.5, 1, 1.5, 2, 4, 6, 8, and 12 h after morning dose but before evening dose). Urine samples were collected from patients who received 200, 600, or 1000 mg on day 1 (before drug administration, and 0–6-, 6–12-, 12–24-h post-administration).

US patients = conditions: cited from earlier work

CC(C)=CCC/C(C)=C/CC/C(C)=C/CSc1ccccc1C(=O)O [Salirasib, S-trans, trans-farnesylthiosalicylic acid]
dose at which Cmax and AUCinf were maximal (clinical): 800 mg | dose proportionality of Cmax and AUC12h (power model analyses) (clinical): increased proportionally and in dose-dependent manners | half-life (clinical): 3.5 to 9.11 h | mean Cmax across dose groups (clinical): 1180 to 4870 ng/mL | time to Cmax, median, across dose groups (clinical): 2.10 to 4.05 h | AUC(0-inf) (clinical; 100 mg): 4970 ± 1600 ng·h/mL | CL/F, mean ± SD (clinical; 100 mg): 21.6 ± 6.80 L/h | half-life (clinical; 100 mg): 3.81 ± 0.25 h | tmax, Range (clinical; 100 mg): 1.52 to 3.88 h | AUC(0-t) (clinical; 100 mg, mean ± SD): 4700 ± 1490 ng·h/mL | Cmax (clinical; 100 mg, Cmax, mean ± SD): 1340 ± 473 ng/mL | AUC12h, mean ± SD (clinical; 200 mg): 10,500 ± 4450 ng h/mL | AUC(0-inf) (clinical; 200 mg): 11400 ng·h/mL | CL/F, mean ± SD (clinical; 200 mg): 19.1 ± 7.35 L/h | Cmax, mean ± SD (clinical; 200 mg): 2830 ± 822 ng/mL | half-life (clinical; 200 mg): 4.16 ± 1.13 h | tmax, Range (clinical; 200 mg): 2.13 to 4.00 h | AUC(0-t) (clinical; 200 mg, mean ± SD): 10400 ng·h/mL | Cmax (clinical; 200 mg, Cmax, mean ± SD): 2610 ± 837 ng/mL | AUC12h, mean ± SD (clinical; 400 mg): 14,800 ± 3520 ng h/mL | AUC(0-inf) (clinical; 400 mg): 20300 ng·h/mL | CL/F, mean ± SD (clinical; 400 mg): 20.1 ± 3.83 L/h | Cmax, mean ± SD (clinical; 400 mg): 3630 ± 876 ng/mL | half-life (clinical; 400 mg): 4 ± 1.88 h | AUC(0-t) (clinical; 400 mg, mean ± SD): 18000 ng·h/mL | Cmax (clinical; 400 mg, Cmax, mean ± SD): 3250 ± 1440 ng/mL | AUC12h, mean ± SD (clinical; 600 mg): 18,700 ± 4710 ng h/mL | AUC(0-inf) (clinical; 600 mg): 18500 ng·h/mL | CL/F, mean ± SD (clinical; 600 mg): 33.0 ± 5.25 L/h | Cmax, mean ± SD (clinical; 600 mg): 4500 ± 1580 ng/mL | half-life (clinical; 600 mg): 3.5 ± 0.39 h | tmax, Range (clinical; 600 mg): 1.42 to 4.00 h | AUC(0-t) (clinical; 600 mg, mean ± SD): 16900 ng·h/mL | Cmax (clinical; 600 mg, Cmax, mean ± SD): 4870 ± 2390 ng/mL | Tmax (clinical; 600 mg, Median): 2.1 h | Tmax (clinical; 600 mg, Range): 2 to 4 h | AUC12h, mean ± SD (clinical; 800 mg): 16,300 ± 6240 ng h/mL | AUC(0-inf) (clinical; 800 mg): 26600 ng·h/mL | CL/F, mean ± SD (clinical; 800 mg): 30.7 ± 4.55 L/h | Cmax, mean ± SD (clinical; 800 mg): 4790 ± 1100 ng/mL | dose proportionality of Cmax and AUCinf (power model analyses) (clinical; 800 mg): increased proportionally until 400 mg in dose-dependent manners | half-life (clinical; 800 mg): 3.67 ± 0.81 h | tmax, Range (clinical; 800 mg): 2.02 to 5.93 h | AUC(0-t) (clinical; 800 mg, mean ± SD): 23800 ng·h/mL | Cmax (clinical; 800 mg, Cmax, mean ± SD): 3840 ± 2090 ng/mL | Tmax (clinical; 800 mg, Median): 2.98 h | Tmax (clinical; 800 mg, Range): 1.42 to 5.98 h | AUC12h, mean ± SD (clinical; 1000 mg): 15,700 ± 9100 ng h/mL | Cmax, mean ± SD (clinical; 1000 mg): 4990 ± 1210 ng/mL | half-life (clinical; 1000 mg): 9.11 ± 9.79 h | AUC(0-t) (clinical; 1000 mg, mean ± SD): 22400 ng·h/mL | Cmax (clinical; 1000 mg, Cmax, mean ± SD): 2630 ± 1450 ng/mL | Tmax (clinical; 1000 mg, Range): 2 to 3.97 h | Cmax (clinical; mean Cmax across dose groups): 1340 to 4990 ng/mL | AUC(0-t) (clinical; po, 100 mg, mean ± SD): 4610 ng·h/mL | Cmax (clinical; po, 100 mg, Cmax, mean ± SD): 1180 ng/mL | AUC(0-inf) (clinical; po, 1000 mg): 26900 ng·h/mL | drug-related AEs (US patients; US patients on 800-mg regimen): all patients on 800-mg regimen experienced drug-related AEs | Dose-limiting toxicity (DLT) (US patients; phase I trial in the US patients, up to 800 mg): no DLT was observed up to 800 mg

— publication PMC6105164 (Cancer Chemotherapy and Pharmacology, 2018)
